From patent US20230241226A1, “COMPOUNDS FOR TARGETED DEGRADATION OF CARRIER PROTEINS AND USES THEREOF” (CeMM - Forschungszentrum für Molekulare Medizin GmbH, priority 2019, published 2023) come the findings set out here.

Molecules are shown by their SMILES.

The target in one assay is T1, dTAG-HA SLC38A9 (Homo sapiens, UniProt Q8NBW4+Q96SW2).
T1 construct: expressed in transfected cells
The assay can be described thus: Targeted degradation of dTAG-tagged SLC38A9 (western blot). The assay is classed as cell-based. As to the method: (A) HAP1 cells expressing dTAG-HA SLC38A9, 38A2, or 38A1 were treated with 0.5 µM dTAG13 for 16, 24 or 48 hours.
SLC1A5, SLC2A1, SLC2A3, SLC16A1, SLC38A1, SLC38A2 were obtained as gateway-compatible pENTR/pDONR vectors from the Harvard PlasmID Repository. SLC39A7 was obtained from Dharmacon, GE Healthcare. The following vectors were synthesized by Genescript: SLC4A4, SLC7A3, SLC38A9, SLC25A1, SLC9A1, SLC9A2, SLC9A3, SLC9A4, SLC9A5, SLC9A6, SLC9A7, SLC9A8, and SLC9B2. SLC30A9, SLC33A1, SLC35B2, SLC25A26, and MTCH2 were a gift from the RESOLUTE consortium. cDNAs were transferred into gateway-compatible lentiviral expression vectors: pLX305 dTAG vectors (Addgene #91797/8) or pRRL Strep-HA (described previously43, EF1a promotor driven expression) using LR recombination (ThermoFisher Scientific). […]
For immunoblotting, whole cell extracts were prepared using RIPA lysis buffer (25 mM Tris/HCl pH 7.6, 150 mM NaCl, 1% NP-40, 1% sodium deoxycholate, 0.1% SDS, EDTA-free protease inhibitor (Roche) and phosphatase inhibitors 2+3 (Sigma- Aldrich)). […] Protein extracts were quantified and normalized using the BCA assay (Thermo Scientific). […]
SLCs were ectopically expressed as fusions to a mutated FKBP domain, also known as the dTAG system. […] Each of the tested SLCs was stably expressed in HAP1 cells, and subcellular localization was assessed by immunofluorescence microscopy (FIG. 1B). […]

A further assay relates to dTAG-HA SLCs. Nature of the assay: dTAG-driven SLC degradation, statements across SLCs (temporal control, chemical rescue). The class given is cell-based, human. Particulars: dTAG-tagged SLCs; FIGS. 5E and F. The method, then:
(D)Chemical “rescue” of dTAG-driven degradation of SLCs. HAP1 cell lines expressing dTAG-HA SLC1A5 or dTAG-HA SLC38A9 were treated with 0.5 µM dTAG7 for 12 or 18 hours, respectively. These cells were also treated with chloroquine (CQ, 50 µM), bortezomib (bort., 1 µM), MG-132 (MG, 1 µM), MLN4924 (MLN, 1 µM), pomalidomide (poma., 10 µM), or bafilomycin A1 (bafi., 2.5 µM). SLC degradation was rescued by inhibiting CRL activity or the proteasome, but not by inhibiting the lysosome machinery.
Western blotting with antibodies against the HA-tag and the total protein mirrored the observed pattern.
(D) Chemical “rescue” of dTAG driven degradation. HAP1 cell lines expressing dTAGHA SLC2A3, 39A7, […], and MTCH2 were treated with 0.5 µM dTAG7 for 12 hours. A cell line expressing dTAG-HA SLC38A2 was treated with 0.5 µM dTAG7 for 18 hours. These cells were treated with MLN4924 (MLN, 1 µM), pomalidomide (poma., 10 µM), or bafilomycin A1 (bafi., 2.5 µM) to monitor the inhibition of degradation.
For immunoblotting, whole cell extracts were prepared using RIPA lysis buffer (25 mM Tris/HCl pH 7.6, 150 mM NaCl, 1% NP-40, 1% sodium deoxycholate, 0.1% SDS, EDTA-free protease inhibitor (Roche) and phosphatase inhibitors 2+3 (Sigma- Aldrich)). Cell extracts were incubated for 15 min on ice in 50 µL RIPA buffer. Lysates were cleared by centrifugation (20,000 g, 10 min, 4° C.). Protein extracts were quantified and normalized using the BCA assay (Thermo Scientific). Where indicated, cleared lysates where treated with the enzyme PNGase (NEB) to deglycosylate the proteins. Lämmli Sample Buffer 4x was added to protein extract samples without boiling. Cell lysates were run on SDS-polyacrylamide gel in tris-glycine running buffer and transferred to nitrocellulose membranes Amersham Protran 0.45 µm (GE Healthcare), according to standard methods. The membranes were incubated with the antibodies indicated below and visualized with horseradish peroxidase-conjugated secondary antibodies (described below) using the ECL Western blotting system (Thermo Scientific). The following antibodies were used: GAPDH (Santa Cruz, sc-365062), Actin (Cyoskeleton Inc., #AAN01), HA (Covance, cat #MMS-101R), HA (Cell Signaling, #3724), HA7-HRP (Sigma, H6533), HA (Roche, #11867423001), SLC9A1 (Santa Cruz, sc-136239), SLC2A1 (Cell Signaling, #12939), SLC38A1 (Cell Signaling, #36057). Secondary antibody for imaging goat anti-Rat IgG Alexa Fluor 488 (ThermoFisher, A11006). The following secondary antibodies were used for immunoblotting: goat anti-mouse HRP (115-035-003, Jackson ImmunoResearch) and goat anti-rabbit HRP (111-035-003, Jackson ImmunoResearch).
SLCs were ectopically expressed as fusions to a mutated FKBP domain, also known as the dTAG system. In brief, a dTAGed protein is amenable to degradation by specific chimeric degrader molecules (e.g. dTAG7/dTAG13) that simultaneously bind to the dTAG and the CRL4CRBN E3 ligase, inducing molecular proximity and ensuing degradation by the proteasome. Given that SLCs were expressed in all cellular compartments, the amenability of differentially located SLCs to targeted proteolysis was tested (FIG. 1A, upper graph). Each of the tested SLCs was stably expressed in HAP1 cells, and subcellular localization was assessed by immunofluorescence microscopy (FIG. 1B). In detail, SLCs located at the cell surface (SLC1A5, SLC38A1, SLC2A1, SLC2A3, SLC16A1, SLC4A4, SLC7A3), cell surface and vesicles (SLC38A2), lysosome (SLC38A9), Golgi (SLC35B2, SLC33A1), mitochondria (SLC25A26, SLC25A1, and MTCH2) and endoplasmic reticulum (SLC39A7, SLC30A9) were assayed. Cellular treatment with a specific degrader molecule (dTAG7 or dTAG13) led to identification of SLCs expressed at cell surface, endoplasmic reticulum and lysosome that were amenable to targeted degradation (FIGS. 1C, 5A). The dTAG could be placed on either N- or C-terminus of the SLC, if both face the cytoplasm (FIG. 5B), as exemplified by SLC2A3. […]

T1 sequence (Q8NBW4 with tags, fused parts or gaps): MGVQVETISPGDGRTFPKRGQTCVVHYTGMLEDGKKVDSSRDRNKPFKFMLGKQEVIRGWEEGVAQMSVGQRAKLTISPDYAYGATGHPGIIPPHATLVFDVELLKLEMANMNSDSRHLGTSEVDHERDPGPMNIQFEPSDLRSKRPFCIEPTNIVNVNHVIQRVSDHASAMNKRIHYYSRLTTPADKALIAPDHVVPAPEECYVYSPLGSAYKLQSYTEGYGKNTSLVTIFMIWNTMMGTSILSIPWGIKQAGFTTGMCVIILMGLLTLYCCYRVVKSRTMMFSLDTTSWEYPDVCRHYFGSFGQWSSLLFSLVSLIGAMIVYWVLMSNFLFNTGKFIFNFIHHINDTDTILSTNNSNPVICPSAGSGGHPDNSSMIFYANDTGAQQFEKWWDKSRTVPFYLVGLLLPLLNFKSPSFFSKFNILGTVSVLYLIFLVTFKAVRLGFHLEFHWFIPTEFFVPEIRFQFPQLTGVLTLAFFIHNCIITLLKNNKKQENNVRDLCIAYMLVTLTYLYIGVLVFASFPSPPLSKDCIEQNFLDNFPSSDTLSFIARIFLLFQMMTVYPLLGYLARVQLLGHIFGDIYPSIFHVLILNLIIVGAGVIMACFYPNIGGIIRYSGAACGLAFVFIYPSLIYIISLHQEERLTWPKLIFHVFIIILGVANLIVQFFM
T1 sequence (Q96SW2 whole entry): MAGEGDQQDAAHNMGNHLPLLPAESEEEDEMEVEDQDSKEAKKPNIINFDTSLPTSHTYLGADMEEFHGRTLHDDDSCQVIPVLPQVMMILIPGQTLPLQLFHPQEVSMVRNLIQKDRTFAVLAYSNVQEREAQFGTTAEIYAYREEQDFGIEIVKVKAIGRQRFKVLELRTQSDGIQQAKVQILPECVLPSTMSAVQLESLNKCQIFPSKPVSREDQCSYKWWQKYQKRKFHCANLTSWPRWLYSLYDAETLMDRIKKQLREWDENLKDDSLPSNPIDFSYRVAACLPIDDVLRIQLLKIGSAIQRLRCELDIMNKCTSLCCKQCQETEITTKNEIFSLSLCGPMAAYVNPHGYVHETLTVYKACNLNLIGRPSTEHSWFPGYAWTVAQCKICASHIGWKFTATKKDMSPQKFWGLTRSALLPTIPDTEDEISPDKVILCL
T1 sequence (Q16531 whole entry partner): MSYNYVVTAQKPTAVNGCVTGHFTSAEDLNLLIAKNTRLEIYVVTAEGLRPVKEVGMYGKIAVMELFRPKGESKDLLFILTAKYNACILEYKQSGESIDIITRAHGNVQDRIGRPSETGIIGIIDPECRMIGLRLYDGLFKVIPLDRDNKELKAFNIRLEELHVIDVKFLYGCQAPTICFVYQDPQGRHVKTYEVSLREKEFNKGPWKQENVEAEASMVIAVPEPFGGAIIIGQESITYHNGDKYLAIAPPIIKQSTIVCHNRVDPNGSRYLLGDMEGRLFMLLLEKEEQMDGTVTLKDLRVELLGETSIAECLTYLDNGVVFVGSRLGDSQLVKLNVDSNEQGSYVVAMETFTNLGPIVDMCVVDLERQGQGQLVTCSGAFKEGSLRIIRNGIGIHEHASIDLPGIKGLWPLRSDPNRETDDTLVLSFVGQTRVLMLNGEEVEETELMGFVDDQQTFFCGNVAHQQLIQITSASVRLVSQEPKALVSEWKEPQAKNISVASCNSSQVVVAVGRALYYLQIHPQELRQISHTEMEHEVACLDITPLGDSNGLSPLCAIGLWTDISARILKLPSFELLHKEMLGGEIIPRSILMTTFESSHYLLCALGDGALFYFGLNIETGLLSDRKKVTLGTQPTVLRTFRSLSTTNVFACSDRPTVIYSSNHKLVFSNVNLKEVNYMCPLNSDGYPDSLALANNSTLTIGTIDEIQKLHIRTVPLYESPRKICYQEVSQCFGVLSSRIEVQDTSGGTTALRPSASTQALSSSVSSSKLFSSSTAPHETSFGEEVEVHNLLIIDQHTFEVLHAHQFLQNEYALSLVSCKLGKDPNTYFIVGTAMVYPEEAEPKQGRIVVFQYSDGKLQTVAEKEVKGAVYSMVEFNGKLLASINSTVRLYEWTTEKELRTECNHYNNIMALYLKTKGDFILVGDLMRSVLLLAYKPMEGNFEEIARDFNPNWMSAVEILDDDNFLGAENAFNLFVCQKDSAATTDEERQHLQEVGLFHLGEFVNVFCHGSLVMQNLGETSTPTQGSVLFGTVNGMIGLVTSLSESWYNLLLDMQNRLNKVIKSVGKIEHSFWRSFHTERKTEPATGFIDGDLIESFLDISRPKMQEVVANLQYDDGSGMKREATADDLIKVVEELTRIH

Take `CC[C@H](C(=O)N1CCCC[C@H]1C(=O)O[C@H](CCc1ccc(OC)c(OC)c1)c1ccccc1OCC(=O)NCCCOCCOCCOCCCNC(=O)COc1cccc2c1C(=O)N(C1CCC(=O)NC1=O)C2=O)c1cc(OC)c(OC)c(OC)c1` (stereo partly shown) [dTAG7]: the “reversibility of degradation of the target SLC” value on dTAG-HA SLC38A9 (HAP1, 0.5 µM, 24, 48 or 72 hours) was “reversible degradation”. The “temporal control of targeted SLC degradation” value with dTAG-HA SLCs is given as “reversible degradation”.

For the compound `CC[C@H](C(=O)N1CCCC[C@H]1C(=O)O[C@H](CCc1ccc(OC)c(OC)c1)c1ccccc1OCC(=O)NCCCCCCOc1cccc2c1C(=O)N(C1CCC(=O)NC1=O)C2=O)c1cc(OC)c(OC)c(OC)c1` (stereo partly shown) [dTAG13], the “degradation of the target SLC” value on dTAG-HA SLC38A9 (HAP1, 0.5 µM, 16, 24 or 48 hours) is listed as “Near-complete degradation”. Moreover, in the assay on dTAG-HA SLCs, the “time for which target degradation is maintained” value is recorded as “at least 72 h”.
